Assay results: PubChem BioAssay (NCI)
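Cells were grown in 96-well plates and exposed to each compound for 48 hours at five concentrations; endpoints were interpolated linearly between bracketing concentrations, or set to the highest concentration if not reached. Definition used: TGI = concentration required for complete inhibition of growth.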

Columns and labels:
Assay in all cases: growth of human tumour cells (NCI), 48 h
LOX IMVI melanoma = test system: LOX IMVI melanoma
UO-31 renal = test system: UO-31 renal
OVCAR-3 ovarian = test system: OVCAR-3 ovarian
UACC-257 melanoma = test system: UACC-257 melanoma
CCRF-CEM leukemia = test system: CCRF-CEM leukemia
COLO 205 colon = test system: COLO 205 colon
HCT-116 colon = test system: HCT-116 colon
A549 NSCLC = test system: A549 NSCLC
SF-295 CNS = test system: SF-295 CNS
EKVX NSCLC = test system: EKVX NSCLC
OVCAR-5 ovarian = test system: OVCAR-5 ovarian
BT-549 breast = test system: BT-549 breast
SF-268 CNS = test system: SF-268 CNS
RXF 393 renal = test system: RXF 393 renal
HT29 colon = test system: HT29 colon
MOLT-4 leukemia = test system: MOLT-4 leukemia
HOP-92 NSCLC = test system: HOP-92 NSCLC
TK-10 renal = test system: TK-10 renal
ACHN renal = test system: ACHN renal
SNB-75 CNS = test system: SNB-75 CNS
OVCAR-8 ovarian = test system: OVCAR-8 ovarian
NCI-H460 lung = test system: NCI-H460 lung
UACC-62 melanoma = test system: UACC-62 melanoma
PC-3 prostate = test system: PC-3 prostate
U251 CNS = test system: U251 CNS
KM12 colon = test system: KM12 colon
MDA-MB-231 breast = test system: MDA-MB-231 breast
SW-620 colon = test system: SW-620 colon
NCI-H226 lung = test system: NCI-H226 lung
OVCAR-4 ovarian = test system: OVCAR-4 ovarian
786-0 renal = test system: 786-0 renal
HOP-62 NSCLC = test system: HOP-62 NSCLC
SK-MEL-5 melanoma = test system: SK-MEL-5 melanoma
NCI-H23 lung = test system: NCI-H23 lung
DU-145 prostate = test system: DU-145 prostate
SNB-19 CNS = test system: SNB-19 CNS
K-562 leukemia = test system: K-562 leukemia
SK-OV-3 ovarian = test system: SK-OV-3 ovarian
M14 melanoma = test system: M14 melanoma
IGROV1 ovarian = test system: IGROV1 ovarian
MDA-N = test system: MDA-N
HCT-15 colon = test system: HCT-15 colon
NCI-H522 lung = test system: NCI-H522 lung
SF-539 CNS = test system: SF-539 CNS
SK-MEL-28 melanoma = test system: SK-MEL-28 melanoma
SK-MEL-2 melanoma = test system: SK-MEL-2 melanoma
T-47D breast = test system: T-47D breast
MDA-MB-435 = test system: MDA-MB-435
NCI/ADR-RES ovarian = test system: NCI/ADR-RES ovarian
SR leukemia = test system: SR leukemia
HS 578T breast = test system: HS 578T breast
RPMI-8226 leukemia = test system: RPMI-8226 leukemia
HCC-2998 colon = test system: HCC-2998 colon
MALME-3M melanoma = test system: MALME-3M melanoma
CAKI-1 renal = test system: CAKI-1 renal
MCF7 breast = test system: MCF7 breast
SN12C renal = test system: SN12C renal
A498 renal = test system: A498 renal
HL-60(TB) leukemia = test system: HL-60(TB) leukemia

SMILES: S=C(Nc1ccc(Cl)cc1)SC1CCCCC1
- TGI (LOX IMVI melanoma): 42.8 µM
- TGI (UO-31 renal): > 100 µM
- TGI (OVCAR-3 ovarian): 56.9 µM
- TGI (UACC-257 melanoma): 76.5 µM
- TGI (CCRF-CEM leukemia): > 100 µM
- TGI (COLO 205 colon): > 100 µM
- TGI (HCT-116 colon): 70.8 µM
- TGI (A549 NSCLC): 56.4 µM
- TGI (SF-295 CNS): 70.5 µM
- TGI (EKVX NSCLC): 47 µM
- TGI (OVCAR-5 ovarian): 62 µM
- TGI (BT-549 breast): > 100 µM
- TGI (SF-268 CNS): 84.9 µM
- TGI (RXF 393 renal): 58.9 µM
- TGI (HT29 colon): 50.9 µM
- TGI (MOLT-4 leukemia): 92.4 µM
- TGI (HOP-92 NSCLC): 71.2 µM
- TGI (TK-10 renal): > 100 µM
- TGI (ACHN renal): 36.6 µM
- TGI (SNB-75 CNS): 74.4 µM
- TGI (OVCAR-8 ovarian): > 100 µM
- TGI (NCI-H460 lung): 86.7 µM
- TGI (UACC-62 melanoma): 28.8 µM
- TGI (PC-3 prostate): > 100 µM
- TGI (U251 CNS): > 100 µM
- TGI (KM12 colon): 95.7 µM
- TGI (MDA-MB-231 breast): > 100 µM
- TGI (SW-620 colon): > 100 µM
- TGI (NCI-H226 lung): > 100 µM
- TGI (OVCAR-4 ovarian): > 100 µM
- TGI (786-0 renal): > 100 µM
- TGI (HOP-62 NSCLC): 87.5 µM
- TGI (SK-MEL-5 melanoma): 30.5 µM
- TGI (NCI-H23 lung): 45.4 µM
- TGI (DU-145 prostate): > 100 µM
- TGI (SNB-19 CNS): 53.6 µM
- TGI (K-562 leukemia): > 100 µM
- TGI (SK-OV-3 ovarian): 94.9 µM
- TGI (M14 melanoma): 42.7 µM
- TGI (IGROV1 ovarian): 54.2 µM
- TGI (MDA-N): 47 µM
- TGI (HCT-15 colon): 69.4 µM
- TGI (NCI-H522 lung): 44.6 µM
- TGI (SF-539 CNS): 61.3 µM
- TGI (SK-MEL-28 melanoma): 49.6 µM
- TGI (SK-MEL-2 melanoma): 39.9 µM
- TGI (T-47D breast): > 100 µM
- TGI (MDA-MB-435): > 100 µM
- TGI (NCI/ADR-RES ovarian): > 100 µM
- TGI (SR leukemia): > 100 µM
- TGI (HS 578T breast): > 100 µM
- TGI (RPMI-8226 leukemia): > 100 µM
- TGI (HCC-2998 colon): 39.3 µM
- TGI (MALME-3M melanoma): 85.9 µM
- TGI (CAKI-1 renal): > 100 µM
- TGI (MCF7 breast): 40.6 µM
- TGI (SN12C renal): 51.3 µM

SMILES: C[C@]12CC[C@H]3[C@@H](CC=C4C[C@@H](O)CC[C@@]43C)[C@@H]1C[C@H](N1CCOCC1)[C@@H]2O
- TGI (LOX IMVI melanoma): > 100 µM
- TGI (UO-31 renal): > 100 µM
- TGI (OVCAR-3 ovarian): > 100 µM
- TGI (UACC-257 melanoma): > 100 µM
- TGI (CCRF-CEM leukemia): > 100 µM
- TGI (COLO 205 colon): > 100 µM
- TGI (HCT-116 colon): > 100 µM
- TGI (A549 NSCLC): > 100 µM
- TGI (SF-295 CNS): > 100 µM
- TGI (EKVX NSCLC): > 100 µM
- TGI (OVCAR-5 ovarian): > 100 µM
- TGI (BT-549 breast): > 100 µM
- TGI (SF-268 CNS): > 100 µM
- TGI (RXF 393 renal): > 100 µM
- TGI (HT29 colon): > 100 µM
- TGI (MOLT-4 leukemia): > 100 µM
- TGI (HOP-92 NSCLC): > 100 µM
- TGI (TK-10 renal): > 100 µM
- TGI (ACHN renal): > 100 µM
- TGI (SNB-75 CNS): 97.4 µM
- TGI (OVCAR-8 ovarian): > 100 µM
- TGI (NCI-H460 lung): > 100 µM
- TGI (UACC-62 melanoma): > 100 µM
- TGI (PC-3 prostate): > 100 µM
- TGI (U251 CNS): > 100 µM
- TGI (KM12 colon): > 100 µM
- TGI (MDA-MB-231 breast): > 100 µM
- TGI (SW-620 colon): > 100 µM
- TGI (NCI-H226 lung): > 100 µM
- TGI (OVCAR-4 ovarian): > 100 µM
- TGI (786-0 renal): > 100 µM
- TGI (HOP-62 NSCLC): > 100 µM
- TGI (SK-MEL-5 melanoma): > 100 µM
- TGI (NCI-H23 lung): > 100 µM
- TGI (DU-145 prostate): > 100 µM
- TGI (SNB-19 CNS): > 100 µM
- TGI (K-562 leukemia): > 100 µM
- TGI (SK-OV-3 ovarian): > 100 µM
- TGI (M14 melanoma): > 100 µM
- TGI (IGROV1 ovarian): > 100 µM
- TGI (MDA-N): > 100 µM
- TGI (HCT-15 colon): > 100 µM
- TGI (NCI-H522 lung): > 100 µM
- TGI (SF-539 CNS): > 100 µM
- TGI (SK-MEL-28 melanoma): > 100 µM
- TGI (SK-MEL-2 melanoma): > 100 µM
- TGI (T-47D breast): > 100 µM
- TGI (MDA-MB-435): > 100 µM
- TGI (NCI/ADR-RES ovarian): > 100 µM
- TGI (A498 renal): > 100 µM
- TGI (HS 578T breast): > 100 µM
- TGI (RPMI-8226 leukemia): > 100 µM
- TGI (HL-60(TB) leukemia): > 100 µM
- TGI (HCC-2998 colon): > 100 µM
- TGI (MALME-3M melanoma): > 100 µM
- TGI (CAKI-1 renal): > 100 µM
- TGI (MCF7 breast): > 100 µM
- TGI (SN12C renal): > 100 µM
